Experimental data reported in ChEMBL document CHEMBL4507291 (2021).
pKi: −log10 of the molar value.

Experiments:
[1] = target: Sigma non-opioid intracellular receptor 1 (Homo sapiens, UniProt Q99720); assay: GPCRScan assay: inhibition of Sigma 1; set-up: radioligand conc. used [nm] 4.0 – 5.0, parental cells HEKT
[2] = target: Maternal embryonic leucine zipper kinase (Homo sapiens) (UniProt Q14680); assay: MELK Kinase screen; settings: Compound concentration 1.0 uM
[3] = target: Beta-2 adrenergic receptor (Homo sapiens) (UniProt P07550); settings: Compound concentration 10.0 uM
Adenosine Transporter = Adenosine Transporter (Cavia porcellus, UniProt H0V4R7+H0UUG1+H0V3Z5); assay: (§1) Inhibition of Transporter, Adenosine at compound concentration of 10.0 uM in the Eurofins-Panlabs radioligand binding assay (Eurofins_assay_202000); type: protein assay; set-up: ligand concentration 0.5 nM, non-specific ligand with concentration 5 uM Nitrobenzylthioinosine, incubation time 30 min, incubation temperature 25 C
[4] = target: Adenosine Transporter (Cavia porcellus) (UniProt H0V4R7+H0UUG1+H0V3Z5); assay: as §1; type: protein assay; set-up: ligand concentration 0.5 nM, non-specific ligand with concentration 5 uM Nitrobenzylthioinosine, incubation time 30 min, incubation temperature 25 C
[5] = target: T1, Beta-adrenergic receptor kinase 1 (Homo sapiens) (UniProt P25098); assay: ADRBK1 (GRK2) Kinase screen; settings: Compound concentration 1.0 uM
T1 sequence (whole entry): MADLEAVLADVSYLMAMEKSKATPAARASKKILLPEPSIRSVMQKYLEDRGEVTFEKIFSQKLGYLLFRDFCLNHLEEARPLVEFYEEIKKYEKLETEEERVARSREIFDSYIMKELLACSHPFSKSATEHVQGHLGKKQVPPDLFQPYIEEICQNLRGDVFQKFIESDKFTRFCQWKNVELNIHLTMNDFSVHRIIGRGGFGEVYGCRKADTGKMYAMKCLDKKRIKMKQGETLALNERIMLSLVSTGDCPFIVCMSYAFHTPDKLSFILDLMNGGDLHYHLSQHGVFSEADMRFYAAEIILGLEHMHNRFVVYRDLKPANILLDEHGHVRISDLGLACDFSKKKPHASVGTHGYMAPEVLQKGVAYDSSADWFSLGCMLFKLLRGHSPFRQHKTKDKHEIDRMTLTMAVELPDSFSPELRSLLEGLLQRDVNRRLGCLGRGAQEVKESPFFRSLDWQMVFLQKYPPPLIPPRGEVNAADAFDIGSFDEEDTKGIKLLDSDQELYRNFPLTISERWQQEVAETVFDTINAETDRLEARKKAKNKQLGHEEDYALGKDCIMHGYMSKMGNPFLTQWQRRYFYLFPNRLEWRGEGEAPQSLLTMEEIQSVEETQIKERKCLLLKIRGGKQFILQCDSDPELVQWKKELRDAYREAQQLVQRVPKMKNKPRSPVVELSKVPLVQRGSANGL

[6] = target: Mitogen-activated protein kinase 3 (Homo sapiens) (UniProt P27361); assay: MAPK3 (ERK1) Kinase screen; settings: Compound concentration 1.0 uM
[7] = target: AMP-activated protein kinase (AMPK) alpha-1/beta-1/gamma-1 (Homo sapiens) (UniProt P54619+Q9Y478+Q13131); assay: AMPK A1/B1/G1 Kinase screen; type: protein-complex assay; settings: Compound concentration 1.0 uM
[8] = target: T2, Cytoplasmic tyrosine-protein kinase BMX (Homo sapiens) (UniProt P51813); assay: BMX Kinase screen; settings: Compound concentration 1.0 uM
T2 sequence (whole entry): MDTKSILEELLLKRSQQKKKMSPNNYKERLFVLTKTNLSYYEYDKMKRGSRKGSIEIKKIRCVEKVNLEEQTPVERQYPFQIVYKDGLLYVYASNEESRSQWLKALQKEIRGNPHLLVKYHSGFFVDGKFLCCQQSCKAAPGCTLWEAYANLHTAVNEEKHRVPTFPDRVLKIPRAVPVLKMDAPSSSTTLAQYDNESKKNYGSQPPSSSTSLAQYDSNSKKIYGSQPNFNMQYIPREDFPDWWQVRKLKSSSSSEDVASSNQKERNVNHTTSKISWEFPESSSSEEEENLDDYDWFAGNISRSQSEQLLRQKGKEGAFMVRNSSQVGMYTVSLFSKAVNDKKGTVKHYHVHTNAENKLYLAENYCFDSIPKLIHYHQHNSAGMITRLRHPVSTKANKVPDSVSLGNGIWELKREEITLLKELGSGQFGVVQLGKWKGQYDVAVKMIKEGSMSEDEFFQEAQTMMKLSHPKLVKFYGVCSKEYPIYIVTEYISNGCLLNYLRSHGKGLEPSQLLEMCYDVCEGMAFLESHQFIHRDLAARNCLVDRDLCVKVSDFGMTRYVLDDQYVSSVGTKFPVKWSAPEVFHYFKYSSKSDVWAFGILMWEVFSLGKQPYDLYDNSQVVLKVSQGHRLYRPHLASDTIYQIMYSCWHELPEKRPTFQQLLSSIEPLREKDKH

[9] = target: Mitogen-activated protein kinase kinase kinase 11 (Homo sapiens) (UniProt Q16584); assay: MAP3K11 (MLK3) Kinase screen; settings: Compound concentration 1.0 uM
[10] = target: Ribosomal protein S6 kinase alpha-6 (Homo sapiens) (UniProt Q9UK32); assay: RPS6KA6 (RSK4) Kinase screen; settings: Compound concentration 1.0 uM
[11] = target: LIM domain kinase 1 (Homo sapiens) (UniProt P53667); assay: LIMK1 Kinase screen; settings: Compound concentration 1.0 uM
[12] = target: BDNF/NT-3 growth factors receptor (Homo sapiens) (UniProt Q16620); assay: NTRK2 (TRKB) Kinase screen; settings: Compound concentration 1.0 uM
[13] = target: Tyrosine-protein kinase Fyn (Homo sapiens) (UniProt P06241); assay: FYN Kinase screen; settings: Compound concentration 1.0 uM
[14] = target: T3, Inhibitor of nuclear factor kappa-B kinase subunit beta (Homo sapiens) (UniProt O14920); assay: IKBKB (IKK beta) Kinase screen; settings: Compound concentration 1.0 uM
T3 sequence (whole entry): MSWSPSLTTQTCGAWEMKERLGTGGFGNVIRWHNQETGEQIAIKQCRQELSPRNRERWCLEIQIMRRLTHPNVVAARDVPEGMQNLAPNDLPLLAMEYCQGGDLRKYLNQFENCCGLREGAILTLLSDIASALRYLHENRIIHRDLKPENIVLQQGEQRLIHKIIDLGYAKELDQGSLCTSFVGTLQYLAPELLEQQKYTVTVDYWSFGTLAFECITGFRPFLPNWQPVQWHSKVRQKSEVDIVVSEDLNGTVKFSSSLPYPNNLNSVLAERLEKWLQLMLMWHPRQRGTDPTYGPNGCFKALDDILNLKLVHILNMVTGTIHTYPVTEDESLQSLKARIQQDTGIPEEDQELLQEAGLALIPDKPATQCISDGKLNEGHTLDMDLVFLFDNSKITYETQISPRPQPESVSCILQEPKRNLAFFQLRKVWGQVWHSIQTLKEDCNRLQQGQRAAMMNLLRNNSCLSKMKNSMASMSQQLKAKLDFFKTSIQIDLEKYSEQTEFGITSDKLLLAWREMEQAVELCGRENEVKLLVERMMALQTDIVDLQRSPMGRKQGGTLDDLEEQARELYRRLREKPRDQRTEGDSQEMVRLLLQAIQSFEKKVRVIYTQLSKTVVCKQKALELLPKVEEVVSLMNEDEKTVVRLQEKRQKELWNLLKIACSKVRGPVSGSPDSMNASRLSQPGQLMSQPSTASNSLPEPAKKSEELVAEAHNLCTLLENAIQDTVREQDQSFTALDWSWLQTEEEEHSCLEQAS

[15] = target: Mitogen-activated protein kinase 8 (Homo sapiens) (UniProt P45983); assay: MAPK8 (JNK1) Kinase screen; settings: Compound concentration 1.0 uM
Chain of Mitogen-activated protein kinase 8 (Homo sapiens) (P45983 whole entry): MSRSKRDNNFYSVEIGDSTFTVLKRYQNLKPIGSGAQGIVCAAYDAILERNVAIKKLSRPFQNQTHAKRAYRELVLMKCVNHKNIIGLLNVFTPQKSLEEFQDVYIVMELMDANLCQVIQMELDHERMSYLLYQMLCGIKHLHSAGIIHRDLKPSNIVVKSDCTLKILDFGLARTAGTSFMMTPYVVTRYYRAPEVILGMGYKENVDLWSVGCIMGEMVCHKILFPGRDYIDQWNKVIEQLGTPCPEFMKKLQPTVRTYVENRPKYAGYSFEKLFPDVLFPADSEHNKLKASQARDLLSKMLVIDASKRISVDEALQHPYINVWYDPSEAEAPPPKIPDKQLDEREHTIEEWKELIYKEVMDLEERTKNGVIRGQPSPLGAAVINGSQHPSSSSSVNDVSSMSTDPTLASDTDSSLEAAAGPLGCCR

Chain of Sigma non-opioid intracellular receptor 1 (Q99720 whole entry): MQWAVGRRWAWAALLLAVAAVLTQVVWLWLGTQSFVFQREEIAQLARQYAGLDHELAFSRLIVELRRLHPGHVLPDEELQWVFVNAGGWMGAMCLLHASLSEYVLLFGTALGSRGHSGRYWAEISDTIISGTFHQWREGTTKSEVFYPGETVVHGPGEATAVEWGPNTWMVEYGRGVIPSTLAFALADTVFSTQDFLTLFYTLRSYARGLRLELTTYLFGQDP
Chain of Beta-2 adrenergic receptor (Homo sapiens) (P07550 whole entry, looked up): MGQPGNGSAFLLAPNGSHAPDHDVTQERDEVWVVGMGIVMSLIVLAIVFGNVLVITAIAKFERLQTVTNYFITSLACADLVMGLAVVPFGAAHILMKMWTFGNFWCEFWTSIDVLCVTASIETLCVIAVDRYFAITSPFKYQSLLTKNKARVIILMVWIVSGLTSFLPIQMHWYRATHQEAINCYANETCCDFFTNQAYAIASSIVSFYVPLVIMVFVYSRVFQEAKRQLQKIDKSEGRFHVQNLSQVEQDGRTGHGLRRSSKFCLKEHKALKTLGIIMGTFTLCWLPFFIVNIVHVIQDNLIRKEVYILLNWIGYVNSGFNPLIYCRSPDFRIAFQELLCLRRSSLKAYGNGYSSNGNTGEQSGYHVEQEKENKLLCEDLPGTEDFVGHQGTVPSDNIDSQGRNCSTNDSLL
Chain of Mitogen-activated protein kinase 3 (Homo sapiens) (P27361 whole entry): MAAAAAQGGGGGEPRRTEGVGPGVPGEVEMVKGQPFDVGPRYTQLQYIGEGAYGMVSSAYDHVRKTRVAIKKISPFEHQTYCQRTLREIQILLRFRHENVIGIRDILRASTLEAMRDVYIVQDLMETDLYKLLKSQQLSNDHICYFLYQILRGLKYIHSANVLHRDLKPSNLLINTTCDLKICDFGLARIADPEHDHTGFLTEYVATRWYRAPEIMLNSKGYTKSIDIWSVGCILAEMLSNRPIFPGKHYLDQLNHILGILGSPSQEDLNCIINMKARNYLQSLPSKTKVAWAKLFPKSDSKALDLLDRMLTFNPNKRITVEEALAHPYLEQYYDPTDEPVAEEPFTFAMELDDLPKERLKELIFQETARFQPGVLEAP
Chain of BDNF/NT-3 growth factors receptor (Homo sapiens) (Q16620 32-822 limits assumed): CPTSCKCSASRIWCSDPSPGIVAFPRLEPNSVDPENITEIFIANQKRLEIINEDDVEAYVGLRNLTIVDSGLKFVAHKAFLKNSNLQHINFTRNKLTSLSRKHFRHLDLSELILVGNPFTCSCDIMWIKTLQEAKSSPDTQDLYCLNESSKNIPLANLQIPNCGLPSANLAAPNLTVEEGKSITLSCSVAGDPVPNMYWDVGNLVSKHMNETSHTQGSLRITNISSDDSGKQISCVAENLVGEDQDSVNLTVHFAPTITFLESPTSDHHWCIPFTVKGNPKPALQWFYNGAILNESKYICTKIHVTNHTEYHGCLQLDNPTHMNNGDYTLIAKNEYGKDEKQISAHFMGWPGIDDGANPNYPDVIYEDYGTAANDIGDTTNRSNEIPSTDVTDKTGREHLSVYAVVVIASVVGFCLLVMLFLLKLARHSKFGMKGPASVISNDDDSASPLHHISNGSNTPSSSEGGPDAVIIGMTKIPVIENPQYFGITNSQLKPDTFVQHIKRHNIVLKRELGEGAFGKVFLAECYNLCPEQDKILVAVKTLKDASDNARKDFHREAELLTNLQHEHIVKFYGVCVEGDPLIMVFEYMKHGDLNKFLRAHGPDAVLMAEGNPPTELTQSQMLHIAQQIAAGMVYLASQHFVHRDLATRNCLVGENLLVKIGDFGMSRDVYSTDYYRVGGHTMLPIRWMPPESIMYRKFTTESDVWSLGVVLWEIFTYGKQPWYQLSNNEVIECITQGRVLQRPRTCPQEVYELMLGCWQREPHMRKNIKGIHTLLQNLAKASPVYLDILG
Chain of Mitogen-activated protein kinase kinase kinase 11 (Homo sapiens) (Q16584 whole entry, looked up): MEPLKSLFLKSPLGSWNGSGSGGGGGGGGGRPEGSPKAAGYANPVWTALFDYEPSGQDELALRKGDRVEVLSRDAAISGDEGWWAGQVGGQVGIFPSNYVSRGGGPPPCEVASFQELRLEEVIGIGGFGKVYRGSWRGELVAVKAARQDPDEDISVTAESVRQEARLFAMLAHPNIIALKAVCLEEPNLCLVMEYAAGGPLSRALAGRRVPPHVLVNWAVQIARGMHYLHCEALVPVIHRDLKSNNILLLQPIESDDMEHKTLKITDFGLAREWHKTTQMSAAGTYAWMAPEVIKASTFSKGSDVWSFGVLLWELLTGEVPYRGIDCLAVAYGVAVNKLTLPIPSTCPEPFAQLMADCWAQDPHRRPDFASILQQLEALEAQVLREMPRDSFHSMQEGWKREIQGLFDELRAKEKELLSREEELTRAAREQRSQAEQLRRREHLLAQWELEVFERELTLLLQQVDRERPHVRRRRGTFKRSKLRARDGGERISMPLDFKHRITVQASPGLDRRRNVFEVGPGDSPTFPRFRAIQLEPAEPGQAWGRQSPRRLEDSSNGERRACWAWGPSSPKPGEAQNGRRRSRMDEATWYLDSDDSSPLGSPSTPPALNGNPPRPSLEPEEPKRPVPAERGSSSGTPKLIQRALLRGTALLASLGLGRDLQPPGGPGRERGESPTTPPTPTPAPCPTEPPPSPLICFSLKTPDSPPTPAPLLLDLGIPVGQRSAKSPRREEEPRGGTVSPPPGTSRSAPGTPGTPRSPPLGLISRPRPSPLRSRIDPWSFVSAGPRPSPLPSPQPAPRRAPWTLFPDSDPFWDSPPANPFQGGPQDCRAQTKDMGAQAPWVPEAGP
Chain of Maternal embryonic leucine zipper kinase (Homo sapiens) (Q14680 whole entry, looked up): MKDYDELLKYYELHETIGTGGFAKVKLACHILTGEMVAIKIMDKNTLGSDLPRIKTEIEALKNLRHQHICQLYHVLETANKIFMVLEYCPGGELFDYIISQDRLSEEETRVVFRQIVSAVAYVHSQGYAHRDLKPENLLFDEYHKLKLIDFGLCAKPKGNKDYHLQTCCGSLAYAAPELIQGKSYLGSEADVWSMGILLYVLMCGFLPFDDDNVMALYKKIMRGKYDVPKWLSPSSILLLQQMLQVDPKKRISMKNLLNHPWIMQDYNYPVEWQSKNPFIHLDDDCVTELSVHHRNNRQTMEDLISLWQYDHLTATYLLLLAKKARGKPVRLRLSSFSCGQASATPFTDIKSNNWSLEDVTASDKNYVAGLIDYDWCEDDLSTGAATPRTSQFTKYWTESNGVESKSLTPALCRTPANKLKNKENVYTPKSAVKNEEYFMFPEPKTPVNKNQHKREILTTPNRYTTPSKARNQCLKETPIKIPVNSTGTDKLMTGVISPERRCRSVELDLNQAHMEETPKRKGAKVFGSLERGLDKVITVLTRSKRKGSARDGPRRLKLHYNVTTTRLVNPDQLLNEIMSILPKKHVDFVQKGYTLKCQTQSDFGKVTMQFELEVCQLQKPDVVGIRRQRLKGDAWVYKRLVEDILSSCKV
Chain of Ribosomal protein S6 kinase alpha-6 (Homo sapiens) (Q9UK32 whole entry, the tested form may be a part): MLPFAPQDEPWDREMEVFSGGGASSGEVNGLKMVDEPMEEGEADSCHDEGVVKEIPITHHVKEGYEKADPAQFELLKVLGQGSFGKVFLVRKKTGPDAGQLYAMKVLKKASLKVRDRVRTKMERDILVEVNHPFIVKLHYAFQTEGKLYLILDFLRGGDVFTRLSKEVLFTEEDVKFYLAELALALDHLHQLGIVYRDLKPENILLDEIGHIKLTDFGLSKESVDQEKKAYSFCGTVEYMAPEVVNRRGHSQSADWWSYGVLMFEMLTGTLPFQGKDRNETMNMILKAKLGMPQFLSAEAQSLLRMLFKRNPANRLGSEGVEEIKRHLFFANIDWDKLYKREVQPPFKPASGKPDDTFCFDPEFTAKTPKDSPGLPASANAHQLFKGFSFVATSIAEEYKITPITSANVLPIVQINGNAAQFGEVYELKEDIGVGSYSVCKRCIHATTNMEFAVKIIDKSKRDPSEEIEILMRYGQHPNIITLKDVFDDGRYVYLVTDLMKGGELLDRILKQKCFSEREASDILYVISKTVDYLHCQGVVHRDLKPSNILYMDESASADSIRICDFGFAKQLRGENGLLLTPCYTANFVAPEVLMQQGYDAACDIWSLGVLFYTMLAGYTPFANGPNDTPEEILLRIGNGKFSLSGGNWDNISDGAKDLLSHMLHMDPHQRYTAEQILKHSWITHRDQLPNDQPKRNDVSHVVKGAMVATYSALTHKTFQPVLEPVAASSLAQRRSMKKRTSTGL
Chain of Tyrosine-protein kinase Fyn (Homo sapiens) (P06241 2-537 limits assumed): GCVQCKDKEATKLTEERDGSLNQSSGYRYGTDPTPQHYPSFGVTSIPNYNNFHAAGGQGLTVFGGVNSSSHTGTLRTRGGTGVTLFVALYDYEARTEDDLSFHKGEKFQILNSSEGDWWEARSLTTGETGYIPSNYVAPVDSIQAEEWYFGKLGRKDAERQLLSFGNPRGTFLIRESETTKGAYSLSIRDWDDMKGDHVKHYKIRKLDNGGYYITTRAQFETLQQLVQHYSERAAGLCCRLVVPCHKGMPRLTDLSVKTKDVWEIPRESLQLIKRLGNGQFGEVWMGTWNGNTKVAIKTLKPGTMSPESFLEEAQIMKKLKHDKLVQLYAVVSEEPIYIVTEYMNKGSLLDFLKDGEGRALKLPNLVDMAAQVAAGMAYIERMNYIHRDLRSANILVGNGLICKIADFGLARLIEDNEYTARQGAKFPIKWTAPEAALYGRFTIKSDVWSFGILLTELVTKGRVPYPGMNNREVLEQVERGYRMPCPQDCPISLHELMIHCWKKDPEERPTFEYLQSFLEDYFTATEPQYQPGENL

Row | SMILES | pKi [1] | inhibition [2] [%] | inhibition [3] [%] | IC50 (Adenosine Transporter) [µM] | Ki (Adenosine Transporter) [µM] | inhibition ([4]; Compound concentration 0.01 uM) [%] | inhibition ([4]; Compound concentration 0.1 uM) [%] | inhibition ([4]; Compound concentration 1.0 uM) [%] | inhibition ([4]; Compound concentration 10.0 uM) [%] | inhibition [5] [%] | inhibition [6] [%] | inhibition [7] [%] | inhibition [8] [%] | inhibition [9] [%] | inhibition [10] [%] | inhibition [11] [%] | inhibition [12] [%] | inhibition [13] [%] | inhibition [14] [%] | inhibition [15] [%]
1 | C[C@@H]1CN(c2cc(-c3nn(C)c4ccc(OC5(C)CC5)cc34)ncn2)C[C@H](C)O1 [MLi-2-NC] | 5.80 | – | – | – | – | – | – | – | – | – | – | – | – | – | – | – | – | – | – | –
2 | C[C@@H]1CN(c2cc(-c3n[nH]c4ccc(OC5(C)CC5)cc34)ncn2)C[C@H](C)O1 [MLi-2] | – | 5.44 | 16 | 9.7 | 3.32 | 2 | -1 | 11 | 51 | 3.84 | 18.7 | -3.77 | 14 | -3.69 | 3.23 | 11 | 7.02 | 11.2 | -0.0171 | -0.139
